Experimental data: US20240279207A1, “SUBSTITUTED ACYL SULFONAMIDES FOR TREATING CANCER” (The Broad Institute, Inc., priority 2020, published 2024)

Columns and labels:
[1] = molecular target: T1, Recombinant human His-tagged Kat6a protein (amino acids 194-810) (Homo sapiens, UniProt Q92794); assay: Kat6a activity assay (TR-FRET, acetylation of Histone-H4-derived peptide); format: biochemical; settings: 60 mins at 22° C., 220 nM H4 peptide, 600 nM Acetyl Coenzyme A, read-out: KAT6A - DPF/HAT domain IC50 [mol/l] (arithmetic mean)
T1 construct: Kat6a protein (amino acids 194-810); His

[2] = test system: ESR1 transcription in MVLN cells; assay: MVLN reporter assay: repression of ESR1 transcription (luciferase signal); format: cell-based; settings: Homo sapiens, MVLN, 24 h, luciferase signal after 24 h, read-out: MVLN reporter assay, IC50 [M] (arithmetic mean)
Outline: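 To control for cell loss, Alamar Blue (2 h, 530/590 nm) precedes the 24 h luciferase measurement. The reporter is an ERE from the Xenopus vitellogenin A2 gene driving luciferase, stably transfected into ER-expressing MVLN cells; duplicate samples.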

T1 sequence (Q92794 194-810): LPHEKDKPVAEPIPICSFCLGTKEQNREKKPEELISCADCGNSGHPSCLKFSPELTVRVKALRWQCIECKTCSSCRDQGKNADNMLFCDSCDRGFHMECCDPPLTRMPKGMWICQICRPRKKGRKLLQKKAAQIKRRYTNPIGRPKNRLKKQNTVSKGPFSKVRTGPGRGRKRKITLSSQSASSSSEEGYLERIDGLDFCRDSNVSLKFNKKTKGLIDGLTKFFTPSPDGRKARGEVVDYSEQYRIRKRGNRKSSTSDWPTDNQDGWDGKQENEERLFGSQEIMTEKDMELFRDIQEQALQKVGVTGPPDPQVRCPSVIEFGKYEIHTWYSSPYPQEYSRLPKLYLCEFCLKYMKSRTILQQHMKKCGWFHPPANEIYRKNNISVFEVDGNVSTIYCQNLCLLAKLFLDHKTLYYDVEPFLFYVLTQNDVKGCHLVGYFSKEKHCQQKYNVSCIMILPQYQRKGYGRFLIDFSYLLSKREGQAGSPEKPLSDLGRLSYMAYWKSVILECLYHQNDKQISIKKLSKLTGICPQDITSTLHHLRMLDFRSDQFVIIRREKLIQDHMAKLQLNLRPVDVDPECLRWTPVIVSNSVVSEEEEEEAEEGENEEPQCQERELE

Row | SMILES | IC50 [1] | IC50 [2]
1 | CC(C)N(C)c1cc(F)cc(F)c1S(=O)(=O)NC(=O)c1cc2c(F)cc(N3CC(F)C3)cc2o1 [Example 165, N-{2,4-difluoro-6-[methyl(propan-2-yl)amino]benzene-1-sulfonyl}-4-fluoro-6-(3-fluoroazetidin-1-yl)-1-benzofuran-2-carboxamide] | 318 nM | 8.64e-07 M
2 | CC(C)N(C)c1ccc(S(=O)(=O)NC(=O)c2cc3c(F)cc(N4CC(F)C4)cc3o2)c(F)c1F [Example 166, N-{2,3-difluoro-4-[methyl(propan-2-yl)amino]benzene-1-sulfonyl}-4-fluoro-6-(3-fluoroazetidin-1-yl)-1-benzofuran-2-carboxamide] | 362 nM | 7.22e-06 M
3 | CCS(=O)(=O)c1nc2ccccn2c1S(=O)(=O)NC(=O)c1cc2c(F)cc(N3CCC3)cc2o1 [Example 167, 6-(Azetidin-1-yl)-N-[2-(ethanesulfonyl)imidazo[1,2-a]pyridine-3-sulfonyl]-4-fluoro-1-benzofuran-2-carboxamide] | 517 nM | > 2e-05 M
4 | O=C(NS(=O)(=O)c1cnc2c(Cl)cc(Cl)cn12)c1cc2c(F)cc(N3CCC3)cc2o1 [Example 168, 6-(Azetidin-1-yl)-N-(6,8-dichloroimidazo[1,2-a]pyridine-3-sulfonyl)-4-fluoro-1-benzofuran-2-carboxamide] | 671 nM | > 2e-05 M
5 | CC(C)Oc1ccc(Br)cc1S(=O)(=O)NC(=O)c1cc2c(F)cc(N3CCC3)cc2o1 [Example 170, 6-(azetidin-1-yl)-N-{5-bromo-2-[(propan-2-yl)oxy]benzene-1-sulfonyl}-4-fluoro-1-benzofuran-2-carboxamide] | 10.5 nM | 1.33e-07 M
6 | O=C(NS(=O)(=O)c1cccc2c1OCCO2)c1cc2c(F)cc(N3CCC3)cc2o1 [Example 172, 6-(Azetidin-1-yl)-N-(2,3-dihydro-1,4-benzodioxine-5-sulfonyl)-4-fluoro-1-benzofuran-2-carboxamide] | 34 nM | 1.35e-07 M
7 | Cc1ccc2cccnc2c1S(=O)(=O)NC(=O)c1cc2c(F)cc(N3CCC3)cc2o1 [Example 173, 6-(Azetidin-1-yl)-4-fluoro-N-(7-methylquinoline-8-sulfonyl)-1-benzofuran-2-carboxamide] | 65.7 nM | 1.58e-07 M
8 | COc1cc(Br)ccc1S(=O)(=O)NC(=O)c1cc2c(F)cc(N3CCC3)cc2o1 [Example 174, 6-(Azetidin-1-yl)-N-(4-bromo-2-methoxybenzene-1-sulfonyl)-4-fluoro-1-benzofuran-2-carboxamide] | 26.5 nM | 1.65e-07 M
9 | Cc1cc(S(=O)(=O)NC(=O)c2cc3c(F)cc(N4CCC4)cc3o2)c2ncccc2c1 [Example 175, 6-(Azetidin-1-yl)-4-fluoro-N-(6-methylquinoline-8-sulfonyl)-1-benzofuran-2-carboxamide] | 44.9 nM | 1.65e-07 M
10 | O=C(NS(=O)(=O)c1c[nH]c2ccccc12)c1cc2c(F)cc(N3CCC3)cc2o1 [Example 176, 6-(Azetidin-1-yl)-4-fluoro-N-(1H-indole-3-sulfonyl)-1-benzofuran-2-carboxamide] | 26.8 nM | 1.88e-07 M
11 | O=C(NS(=O)(=O)c1cc(Br)cc2c1OCC2)c1cc2c(F)cc(N3CCC3)cc2o1 [Example 177, 6-(Azetidin-1-yl)-N-(5-bromo-2,3-dihydro-1-benzofuran-7-sulfonyl)-4-fluoro-1-benzofuran-2-carboxamide] | 21.4 nM | 2.24e-07 M
12 | O=C(NS(=O)(=O)c1csc2ccccc12)c1cc2c(F)cc(N3CCC3)cc2o1 [Example 178, 6-(Azetidin-1-yl)-N-(1-benzothiophene-3-sulfonyl)-4-fluoro-1-benzofuran-2-carboxamide] | 35.3 nM | 3.16e-07 M
13 | Cn1nc2cccc(S(=O)(=O)NC(=O)c3cc4c(F)cc(N5CCC5)cc4o3)c2n1 [Example 179, 6-(Azetidin-1-yl)-4-fluoro-N-(2-methyl-2H-benzotriazole-4-sulfonyl)-1-benzofuran-2-carboxamide] | 66.6 nM | 5.53e-07 M
14 | COc1ccc(S(=O)(=O)NC(=O)c2cc3c(F)cc(N4CCC4)cc3o2)c2c1CCCC2 [Example 180, 6-(Azetidin-1-yl)-4-fluoro-N-(4-methoxy-5,6,7,8-tetrahydronaphthalene-1-sulfonyl)-1-benzofuran-2-carboxamide] | 35.9 nM | 6.28e-07 M
15 | O=C(NS(=O)(=O)c1cccc2nsnc12)c1cc2c(F)cc(N3CCC3)cc2o1 [Example 181, 6-(Azetidin-1-yl)-N-(2,1,3-benzothiadiazole-4-sulfonyl)-4-fluoro-1-benzofuran-2-carboxamide] | 89.5 nM | 6.47e-07 M
16 | COc1ccc2snnc2c1S(=O)(=O)NC(=O)c1cc2c(F)cc(N3CCC3)cc2o1 [Example 182, 6-(Azetidin-1-yl)-4-fluoro-N-(5-methoxy-1,2,3-benzothiadiazole-4-sulfonyl)-1-benzofuran-2-carboxamide] | 55.1 nM | 8.48e-07 M

Row | SMILES | IC50 [1] | IC50 [2]
17 | COc1c(S(=O)(=O)NC(=O)c2cc3c(F)cc(N4CCC4)cc3o2)ccc(Cl)c1Cl [Example 183, 6-(Azetidin-1-yl)-N-(3,4-dichloro-2-methoxybenzene-1-sulfonyl)-4-fluoro-1-benzofuran-2-carboxamide] | 82.8 nM | 9.24e-07 M
18 | O=C(NS(=O)(=O)c1cnn2c1OCCC2)c1cc2c(F)cc(N3CCC3)cc2o1 [Example 184, 6-(Azetidin-1-yl)-N-(6,7-dihydro-5H-pyrazolo[5,1-b][1,3]oxazine-3-sulfonyl)-4-fluoro-1-benzofuran-2-carboxamide] | 294 nM | 5.21e-06 M
19 | CC(=O)Nc1ccc(S(=O)(=O)NC(=O)c2cc3c(F)cc(N4CCC4)cc3o2)c2ccccc12 [Example 185, N-(4-Aacetamidonaphthalene-1-sulfonyl)-6-(azetidin-1-yl)-4-fluoro-1-benzofuran-2-carboxamide] | 195 nM | 9.61e-06 M
20 | O=C(NS(=O)(=O)c1cnc2ccccn12)c1cc2c(F)cc(N3CCC3)cc2o1 [Example 186, 6-(Azetidin-1-yl)-4-fluoro-N-(imidazo[1,2-a]pyridine-3-sulfonyl)-1-benzofuran-2-carboxamide] | 1630 nM | 1.7e-05 M
21 | O=C(NS(=O)(=O)c1cccc2cnccc12)c1cc2c(F)cc(N3CCC3)cc2o1 [Example 187, 6-(Azetidin-1-yl)-4-fluoro-N-(isoquinoline-5-sulfonyl)-1-benzofuran-2-carboxamide] | 1530 nM | 1.85e-05 M
22 | O=C(NS(=O)(=O)c1cccc2c(N3CCOCC3)cccc12)c1cc2c(F)cc(N3CCC3)cc2o1 [Example 188, 6-(Azetidin-1-yl)-4-fluoro-N-[5-(morpholin-4-yl)naphthalene-1-sulfonyl]-1-benzofuran-2-carboxamide] | 132 nM | 2.55e-06 M
23 | Cc1cc(C(C)(C)C)cc(S(=O)(=O)NC(=O)c2cc3c(F)cc(N4CCC4)cc3o2)c1C [Example 189, 6-(Azetidin-1-yl)-N-(5-tert-butyl-2,3-dimethylbenzene-1-sulfonyl)-4-fluoro-1-benzofuran-2-carboxamide] | 8.59 nM | 1.3e-07 M
24 | CC1(C)COc2ccc(S(=O)(=O)NC(=O)c3cc4c(F)cc(N5CCC5)cc4o3)cc21 [Example 190, 6-(Azetidin-1-yl)-N-(3,3-dimethyl-2,3-dihydro-1-benzofuran-5-sulfonyl)-4-fluoro-1-benzofuran-2-carboxamide] | 72.9 nM | 1.93e-07 M
25 | Cc1ccc(S(=O)(=O)NC(=O)c2cc3c(F)cc(N4CCC4)cc3o2)c2ccncc12 [Example 191, 6-(Azetidin-1-yl)-4-fluoro-N-(8-methylisoquinoline-5-sulfonyl)-1-benzofuran-2-carboxamide] | 301 nM | 4.99e-06 M
26 | COC(=O)Nc1cccc2c(S(=O)(=O)NC(=O)c3cc4c(F)cc(N5CCC5)cc4o3)cccc12 [Example 192, Methyl (5-{[6-(azetidin-1-yl)-4-fluoro-1-benzofuran-2-carbonyl]sulfamoyl}naphthalen-1-yl)carbamate] | 2000 nM | > 2e-05 M
27 | Cc1cncc2cccc(S(=O)(=O)NC(=O)c3cc4c(F)cc(N5CCC5)cc4o3)c12 [Example 193, 6-(Azetidin-1-yl)-4-fluoro-N-(4-methylisoquinoline-5-sulfonyl)-1-benzofuran-2-carboxamide] | 4820 nM | > 2e-05 M
28 | COc1ccc(-c2c(C)noc2C)cc1S(=O)(=O)NC(=O)c1cc2c(F)cc(N3CCC3)cc2o1 [Example 194, 6-(Azetidin-1-yl)-N-[5-(3,5-dimethyl-1,2-oxazol-4-yl)-2-methoxybenzene-1-sulfonyl]-4-fluoro-1-benzofuran-2-carboxamide] | 4.19 nM | 7.76e-08 M
29 | COc1ccc(-c2cccc(F)c2)cc1S(=O)(=O)NC(=O)c1cc2c(F)cc(N3CCC3)cc2o1 [Example 198, 6-(Azetidin-1-yl)-4-fluoro-N-(3′-fluoro-4-methoxy[1,1′-biphenyl]-3-sulfonyl)-1-benzofuran-2-carboxamide] | 11.6 nM | 2.95e-07 M
30 | COc1ccc(-c2cnn(C)c2)cc1S(=O)(=O)NC(=O)c1cc2c(F)cc(N3CCC3)cc2o1 [Example 199, 6-(Azetidin-1-yl)-4-fluoro-N-[2-methoxy-5-(1-methyl-1H-pyrazol-4-yl)benzene-1-sulfonyl]-1-benzofuran-2-carboxamide] | 32.3 nM | 5.49e-07 M
31 | COc1ccc(-c2cccnc2)cc1S(=O)(=O)NC(=O)c1cc2c(F)cc(N3CCC3)cc2o1 [Example 200, 6-(Azetidin-1-yl)-4-fluoro-N-[2-methoxy-5-(pyridin-3-yl)benzene-1-sulfonyl]-1-benzofuran-2-carboxamide] | 34.1 nM | 5.5e-07 M
